Reference: the NIST ThermoML archive (doi:10.1016/j.jct.2012.02.007)
Numbers after ± are expanded uncertainties.

Experiments:
[1] = mn = molality of the nth substance listed, in mol/kg; details: 101.3 kPa, Liquid; for speed of sound: Sing-around technique in a fixed-path interferometer; for mass density: Vibrating tube method
[2] = osmotic coefficient (dimensionless); mn = molality of the nth substance listed, in mol/kg; details: 323.15 K, Liquid, Vapor Pressure Osmometer

Structure (SMILES): CCCCn1cc[n+](C)c1.N#CN=C=[N-] [1-butyl-3-methylimidazolium dicyanamide] + CCC(C)O
- speed of sound ([1]; 293.15 K, m1 = 0.0516): 1234.5 ± 0.9 m/s
- speed of sound ([1]; 293.15 K, m1 = 0.1009): 1238.1 ± 0.9 m/s
- speed of sound ([1]; 293.15 K, m1 = 0.1501): 1241.8 ± 0.9 m/s
- speed of sound ([1]; 293.15 K, m1 = 0.2081): 1246 ± 0.9 m/s
- speed of sound ([1]; 293.15 K, m1 = 0.2579): 1249.3 ± 0.9 m/s
- speed of sound ([1]; 293.15 K, m1 = 0.5079): 1265.7 ± 0.9 m/s
- speed of sound ([1]; 293.15 K, m1 = 0.7631): 1281.1 ± 1 m/s
- speed of sound ([1]; 293.15 K, m1 = 1.016): 1295.3 ± 1 m/s
- speed of sound ([1]; 293.15 K, m1 = 1.267): 1308.6 ± 1 m/s
- speed of sound ([1]; 293.15 K, m1 = 1.517): 1321.1 ± 1.1 m/s
- speed of sound ([1]; 293.15 K, m1 = 1.782): 1333.7 ± 1.1 m/s
- speed of sound ([1]; 293.15 K, m1 = 1.95): 1341.3 ± 1.1 m/s
- speed of sound ([1]; 293.15 K, m1 = 2.523): 1365.1 ± 1.2 m/s
- speed of sound ([1]; 293.15 K, m1 = 3.56): 1401.6 ± 1.3 m/s
- mass density ([1]; 293.15 K, m1 = 0.0516): 809.04 ± 0.12 kg/m3
- mass density ([1]; 293.15 K, m1 = 0.1009): 811.17 ± 0.12 kg/m3
- mass density ([1]; 293.15 K, m1 = 0.1501): 813.3 ± 0.12 kg/m3
- mass density ([1]; 293.15 K, m1 = 0.2081): 815.7 ± 0.12 kg/m3
- mass density ([1]; 293.15 K, m1 = 0.2579): 817.76 ± 0.12 kg/m3
- mass density ([1]; 293.15 K, m1 = 0.5079): 827.23 ± 0.12 kg/m3
- mass density ([1]; 293.15 K, m1 = 0.7631): 836.25 ± 0.13 kg/m3
- mass density ([1]; 293.15 K, m1 = 1.016): 844.37 ± 0.13 kg/m3
- mass density ([1]; 293.15 K, m1 = 1.267): 851.96 ± 0.14 kg/m3
- mass density ([1]; 293.15 K, m1 = 1.517): 858.95 ± 0.14 kg/m3
- mass density ([1]; 293.15 K, m1 = 1.782): 865.94 ± 0.15 kg/m3
- mass density ([1]; 293.15 K, m1 = 1.95): 870.16 ± 0.16 kg/m3
- mass density ([1]; 293.15 K, m1 = 2.523): 883.17 ± 0.18 kg/m3
- mass density ([1]; 293.15 K, m1 = 3.56): 902.51 ± 0.22 kg/m3
- speed of sound ([1]; 308.15 K, m1 = 0.0516): 1180.7 ± 0.9 m/s
- speed of sound ([1]; 308.15 K, m1 = 0.1009): 1184.9 ± 0.9 m/s
- speed of sound ([1]; 308.15 K, m1 = 0.1501): 1188.8 ± 0.9 m/s
- speed of sound ([1]; 308.15 K, m1 = 0.2081): 1193.3 ± 0.9 m/s
- speed of sound ([1]; 308.15 K, m1 = 0.2579): 1197.1 ± 0.9 m/s
- speed of sound ([1]; 308.15 K, m1 = 0.5079): 1214.4 ± 0.9 m/s
- speed of sound ([1]; 308.15 K, m1 = 0.7631): 1230.8 ± 0.9 m/s
- speed of sound ([1]; 308.15 K, m1 = 1.016): 1245.9 ± 1 m/s
- speed of sound ([1]; 308.15 K, m1 = 1.267): 1260 ± 1 m/s
- speed of sound ([1]; 308.15 K, m1 = 1.517): 1273 ± 1.1 m/s
- speed of sound ([1]; 308.15 K, m1 = 1.782): 1286.2 ± 1.1 m/s
- speed of sound ([1]; 308.15 K, m1 = 1.95): 1294.2 ± 1.1 m/s
- speed of sound ([1]; 308.15 K, m1 = 2.523): 1319.1 ± 1.2 m/s
- speed of sound ([1]; 308.15 K, m1 = 3.56): 1356.4 ± 1.3 m/s
- mass density ([1]; 308.15 K, m1 = 0.0516): 796.59 ± 0.12 kg/m3
- mass density ([1]; 308.15 K, m1 = 0.1009): 798.81 ± 0.12 kg/m3
- mass density ([1]; 308.15 K, m1 = 0.1501): 801.01 ± 0.12 kg/m3
- mass density ([1]; 308.15 K, m1 = 0.2081): 803.5 ± 0.12 kg/m3
- mass density ([1]; 308.15 K, m1 = 0.2579): 805.61 ± 0.12 kg/m3
- mass density ([1]; 308.15 K, m1 = 0.5079): 815.35 ± 0.13 kg/m3
- mass density ([1]; 308.15 K, m1 = 0.7631): 824.57 ± 0.13 kg/m3
- mass density ([1]; 308.15 K, m1 = 1.016): 832.86 ± 0.14 kg/m3
- mass density ([1]; 308.15 K, m1 = 1.267): 840.59 ± 0.14 kg/m3
- mass density ([1]; 308.15 K, m1 = 1.517): 847.71 ± 0.15 kg/m3
- mass density ([1]; 308.15 K, m1 = 1.782): 854.81 ± 0.16 kg/m3
- mass density ([1]; 308.15 K, m1 = 1.95): 859.09 ± 0.16 kg/m3
- mass density ([1]; 308.15 K, m1 = 2.523): 872.28 ± 0.18 kg/m3
- mass density ([1]; 308.15 K, m1 = 3.56): 891.67 ± 0.22 kg/m3
- speed of sound ([1]; 323.15 K, m1 = 0.0516): 1125.7 ± 0.8 m/s
- speed of sound ([1]; 323.15 K, m1 = 0.1009): 1130.4 ± 0.8 m/s
- speed of sound ([1]; 323.15 K, m1 = 0.1501): 1134.6 ± 0.9 m/s
- speed of sound ([1]; 323.15 K, m1 = 0.2081): 1139.5 ± 0.9 m/s
- speed of sound ([1]; 323.15 K, m1 = 0.2579): 1143.6 ± 0.9 m/s
- speed of sound ([1]; 323.15 K, m1 = 0.5079): 1162.3 ± 0.9 m/s
- speed of sound ([1]; 323.15 K, m1 = 0.7631): 1179.8 ± 0.9 m/s
- speed of sound ([1]; 323.15 K, m1 = 1.016): 1195.9 ± 1 m/s
- speed of sound ([1]; 323.15 K, m1 = 1.267): 1210.9 ± 1 m/s
- speed of sound ([1]; 323.15 K, m1 = 1.517): 1224.8 ± 1 m/s
- speed of sound ([1]; 323.15 K, m1 = 1.782): 1238.7 ± 1.1 m/s
- speed of sound ([1]; 323.15 K, m1 = 1.95): 1247 ± 1.1 m/s
- speed of sound ([1]; 323.15 K, m1 = 2.523): 1273.2 ± 1.2 m/s
- speed of sound ([1]; 323.15 K, m1 = 3.56): 1312.5 ± 1.3 m/s
- mass density ([1]; 323.15 K, m1 = 0.0516): 783.23 ± 0.13 kg/m3
- mass density ([1]; 323.15 K, m1 = 0.1009): 785.57 ± 0.13 kg/m3
- mass density ([1]; 323.15 K, m1 = 0.1501): 787.88 ± 0.13 kg/m3
- mass density ([1]; 323.15 K, m1 = 0.2081): 790.47 ± 0.13 kg/m3
- mass density ([1]; 323.15 K, m1 = 0.2579): 792.68 ± 0.13 kg/m3
- mass density ([1]; 323.15 K, m1 = 0.5079): 802.8 ± 0.1 kg/m3
- mass density ([1]; 323.15 K, m1 = 0.7631): 812.32 ± 0.13 kg/m3
- mass density ([1]; 323.15 K, m1 = 1.016): 820.86 ± 0.14 kg/m3
- mass density ([1]; 323.15 K, m1 = 1.267): 828.79 ± 0.14 kg/m3
- mass density ([1]; 323.15 K, m1 = 1.517): 836.09 ± 0.15 kg/m3
- mass density ([1]; 323.15 K, m1 = 1.782): 843.35 ± 0.16 kg/m3
- mass density ([1]; 323.15 K, m1 = 1.95): 847.71 ± 0.16 kg/m3
- mass density ([1]; 323.15 K, m1 = 2.523): 861.18 ± 0.18 kg/m3
- mass density ([1]; 323.15 K, m1 = 3.56): 880.92 ± 0.22 kg/m3
- osmotic coefficient ([2]; m1 = 0.0525): 0.893 ± 0.013
- osmotic coefficient ([2]; m1 = 0.0792): 0.826 ± 0.014
- osmotic coefficient ([2]; m1 = 0.0995): 0.811 ± 0.014
- osmotic coefficient ([2]; m1 = 0.2159): 0.76 ± 0.015
- osmotic coefficient ([2]; m1 = 0.3148): 0.715 ± 0.016
- osmotic coefficient ([2]; m1 = 0.4003): 0.687 ± 0.016
- osmotic coefficient ([2]; m1 = 0.5143): 0.653 ± 0.017
- osmotic coefficient ([2]; m1 = 0.8478): 0.592 ± 0.019
- osmotic coefficient ([2]; m1 = 1.241): 0.556 ± 0.02
- osmotic coefficient ([2]; m1 = 1.639): 0.538 ± 0.02
- osmotic coefficient ([2]; m1 = 2.038): 0.524 ± 0.021
- osmotic coefficient ([2]; m1 = 2.439): 0.517 ± 0.021
- osmotic coefficient ([2]; m1 = 2.842): 0.502 ± 0.021
- osmotic coefficient ([2]; m1 = 3.307): 0.492 ± 0.022
